From patent US9233929B2, “Fungicide N-cycloalkyl-N-bicyclimethylene-carboxamide derivatives” (priority 2009, dated 2016)

Assay: logP
Format: physicochemical

Row | SMILES | logP
1 | Cc1nn(C)c(F)c1C(=S)N(C1CC1)C(C)C1CCCc2ccccc21 (centres unmarked) [I.3, N-cyclopropyl-5-fluoro-1,3-dimethyl-N-[1-(1,2,3,4-tetrahydronaphthalen-1-yl)ethyl]-1H-pyrazole-4-carbothioamide] | 4.39
2 | CC(N(C(=O)c1cn(C)nc1C(F)F)C1CC1)C1(O)CCCc2ccccc21 (centres unmarked) [I.10, N-cyclopropyl-3-(difluoromethyl)-N-[1-(1-hydroxy-1,2,3,4-tetrahydronaphthalen-1-yl)ethyl]-1-methyl-1H-pyrazole-4-carboxamide] | 2.94
